# Patent US10047084B2, “Imidazolone derivatives, pharmaceutical compositions and uses thereof” (BEIJING FORELANDPHARMA CO. LTD., priority 2013, dated 2018)
# Columns and labels:
# [1] = target: PI3K-alpha (PIK3CA/PIK3R1) (Homo sapiens (Human), UniProt P42336); experiment: PI3K-alpha enzyme activity assay (ADP Glo); type: biochemical; settings: read-out: Activity of inhibiting PI3K enzyme IC50
# Description: 3. PI3K-alpha Enzyme Activity Assay: PI3K alpha-ADP Glo Assay was employed. In the determination of PI3K enzyme activity, the detection kit supplied by Promega (Promega, Cat #: V9101) was used to detect the inhibition effect of the compounds on the activity of PI3K enzyme. The adenosine diphosphate produced during the whole enzymic reactions was quantified. The resulting values were used to calculate the activity of PI3K (Table 1).
# 3.1 Detection reagents: PIK3CA/PIK3R1 purchased from Invitrogen (Cat #: PV4788): The active kinase was diluted with kinase diluent III; and mixed with bovine serum albumin (BSA) in a ratio of 1:4 (5×dilution). The final BSA concentration was 50 ng/ml; and the compositions of Kinase Detection Solution I were: 25 mM MOPS, pH7.2, 12.5 mM β-glycerophosphate, 25 mM magnesium chloride, 5 mM EGTA, and 2 mM EDTA. Before use, 0.25 mM DTT was added to Kinase Detection Solution I; 250 μM adenosine triphosphate (ATP) Detection solution: 0.55 mg of ATP was dissolved in 4 ml of Kinase Detection Solution I, subdivided in 200 μl/vial and stored at −20° C. Substrate: Phosphatidylinositol (4,5) bis-phosphate; this substrate was diluted with Kinase Detection Solution I to a concentration of 125 μM. Final concentrations were: 10 μM PIP2, 10 μM ATP, 1% DMSO, and 0.0005-10 μM compounds.
# a) Experimental Procedure: • 3.2.1 50 μL of the compounds diluted with dimethyl sulfoxide (DMSO) at a concentration of 100 μM were added to the 384-well dilution plate. The compounds were diluted with dimethyl sulfo de (DMSO) in a ratio of 1:3 (10 dilution concentrations plus 1 zero concentration). • 3.2.2 5 μL of the diluted compounds were transferred to the corresponding 384-well black Proxi plate (containing 47.5 μL of detection solution/well), and shaked for several seconds. • 3.2.3 2 μL of 2.5×PI3K working solution was added to 384-well black Proxi plate. • 3.2.4 2 μL of the diluted compounds were added to the detection plate (3 wells for each concentration). • 3.2.5 The plate was incubated at room temperature for 2 h. • 3.2.6 5 μL of ADP Glo Reagent was added. • 3.2.7 The plate was incubated at room temperature for 40 minutes. • 3.2.8 10 μL of the kinase detection reagent was added. • 3.2.9 The plate was incubated at room temperature for 40 minutes. • 3.2.10 The activity was detected by using Envision Reader.
# The inhibition of the mTOR […] activity by the compounds ranges in 0.5 to several hundreds nanomoles, see Table 1.
# mTOR kinase = mTOR kinase (Homo sapiens (Human), UniProt P42345); experiment: mTOR kinase activity assay (TR-FRET, GFP-4EBP1 substrate); type: biochemical; settings: read-out: Enzyme (mTOR) IC50
# [2] = Solubility test in common aqueous vehicles; type: physicochemical; settings: 25° C., pH = 3
# [3] = Pharmacokinetics after oral administration, Balb/c mice; type: in vivo; settings: mouse, plasma, 10 mg/kg
# Experimental: (§1) 4. […] Blood was sampled before the administration and at 0.25 h, 0.5 h, 1 h, 2 h, 4 h, 6 h, 8 h, and 24 h after the administration.
# [4] = Pharmacokinetics after oral administration, SD rat; type: in vivo; settings: plasma, 10 mg/kg
# Experimental: as §1
# Chain of PI3K-alpha (PIK3CA/PIK3R1) (P42336 whole entry, looked up): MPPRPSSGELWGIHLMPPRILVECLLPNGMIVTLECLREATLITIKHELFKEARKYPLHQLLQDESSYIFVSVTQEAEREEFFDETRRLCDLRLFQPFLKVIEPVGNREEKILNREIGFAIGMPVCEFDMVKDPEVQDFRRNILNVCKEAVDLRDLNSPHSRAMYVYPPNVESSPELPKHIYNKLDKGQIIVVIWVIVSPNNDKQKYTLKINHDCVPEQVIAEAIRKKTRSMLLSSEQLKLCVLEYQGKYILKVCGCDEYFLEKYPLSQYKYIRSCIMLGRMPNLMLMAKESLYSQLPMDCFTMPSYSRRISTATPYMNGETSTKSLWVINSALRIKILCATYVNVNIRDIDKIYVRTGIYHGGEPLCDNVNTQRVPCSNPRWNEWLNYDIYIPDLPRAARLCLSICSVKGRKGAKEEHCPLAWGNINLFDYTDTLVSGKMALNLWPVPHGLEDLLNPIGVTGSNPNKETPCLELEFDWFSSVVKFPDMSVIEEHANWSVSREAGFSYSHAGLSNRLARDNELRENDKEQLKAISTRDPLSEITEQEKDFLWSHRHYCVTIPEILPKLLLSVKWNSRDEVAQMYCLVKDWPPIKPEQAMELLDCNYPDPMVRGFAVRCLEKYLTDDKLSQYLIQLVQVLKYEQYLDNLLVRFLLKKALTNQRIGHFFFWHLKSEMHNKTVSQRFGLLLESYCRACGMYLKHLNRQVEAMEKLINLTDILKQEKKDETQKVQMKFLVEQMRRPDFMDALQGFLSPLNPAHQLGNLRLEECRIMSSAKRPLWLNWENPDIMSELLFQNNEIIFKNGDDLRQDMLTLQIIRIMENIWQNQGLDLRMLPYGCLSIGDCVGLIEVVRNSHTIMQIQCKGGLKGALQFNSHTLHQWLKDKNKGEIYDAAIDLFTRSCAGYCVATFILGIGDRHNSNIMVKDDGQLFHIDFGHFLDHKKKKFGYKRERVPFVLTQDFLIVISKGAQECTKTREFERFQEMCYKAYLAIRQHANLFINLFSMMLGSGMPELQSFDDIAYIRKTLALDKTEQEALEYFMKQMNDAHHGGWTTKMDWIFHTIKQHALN
# Chain of PI3K-alpha (PIK3CA/PIK3R1) (P27986 whole entry partner, looked up): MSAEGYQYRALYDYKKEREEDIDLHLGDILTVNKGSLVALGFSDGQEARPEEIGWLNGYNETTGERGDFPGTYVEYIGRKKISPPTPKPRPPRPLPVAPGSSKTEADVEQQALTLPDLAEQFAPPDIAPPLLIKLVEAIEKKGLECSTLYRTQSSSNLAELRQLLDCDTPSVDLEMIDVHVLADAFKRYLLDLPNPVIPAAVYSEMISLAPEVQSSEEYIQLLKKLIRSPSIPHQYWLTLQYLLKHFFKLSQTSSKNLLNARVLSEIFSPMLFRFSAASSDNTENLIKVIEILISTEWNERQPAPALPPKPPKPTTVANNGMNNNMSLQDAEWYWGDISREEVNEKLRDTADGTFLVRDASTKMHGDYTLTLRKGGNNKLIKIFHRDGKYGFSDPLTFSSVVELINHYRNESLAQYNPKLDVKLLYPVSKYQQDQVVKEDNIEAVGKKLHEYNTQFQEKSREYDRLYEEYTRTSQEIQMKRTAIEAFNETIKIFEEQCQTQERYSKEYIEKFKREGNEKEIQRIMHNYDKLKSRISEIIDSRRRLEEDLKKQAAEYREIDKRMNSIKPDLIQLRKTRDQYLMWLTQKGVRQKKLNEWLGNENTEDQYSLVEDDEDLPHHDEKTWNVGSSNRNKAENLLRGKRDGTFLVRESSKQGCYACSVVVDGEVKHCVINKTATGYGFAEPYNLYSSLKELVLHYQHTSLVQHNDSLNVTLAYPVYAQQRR
# Chain of mTOR kinase (P42345 1360-2549): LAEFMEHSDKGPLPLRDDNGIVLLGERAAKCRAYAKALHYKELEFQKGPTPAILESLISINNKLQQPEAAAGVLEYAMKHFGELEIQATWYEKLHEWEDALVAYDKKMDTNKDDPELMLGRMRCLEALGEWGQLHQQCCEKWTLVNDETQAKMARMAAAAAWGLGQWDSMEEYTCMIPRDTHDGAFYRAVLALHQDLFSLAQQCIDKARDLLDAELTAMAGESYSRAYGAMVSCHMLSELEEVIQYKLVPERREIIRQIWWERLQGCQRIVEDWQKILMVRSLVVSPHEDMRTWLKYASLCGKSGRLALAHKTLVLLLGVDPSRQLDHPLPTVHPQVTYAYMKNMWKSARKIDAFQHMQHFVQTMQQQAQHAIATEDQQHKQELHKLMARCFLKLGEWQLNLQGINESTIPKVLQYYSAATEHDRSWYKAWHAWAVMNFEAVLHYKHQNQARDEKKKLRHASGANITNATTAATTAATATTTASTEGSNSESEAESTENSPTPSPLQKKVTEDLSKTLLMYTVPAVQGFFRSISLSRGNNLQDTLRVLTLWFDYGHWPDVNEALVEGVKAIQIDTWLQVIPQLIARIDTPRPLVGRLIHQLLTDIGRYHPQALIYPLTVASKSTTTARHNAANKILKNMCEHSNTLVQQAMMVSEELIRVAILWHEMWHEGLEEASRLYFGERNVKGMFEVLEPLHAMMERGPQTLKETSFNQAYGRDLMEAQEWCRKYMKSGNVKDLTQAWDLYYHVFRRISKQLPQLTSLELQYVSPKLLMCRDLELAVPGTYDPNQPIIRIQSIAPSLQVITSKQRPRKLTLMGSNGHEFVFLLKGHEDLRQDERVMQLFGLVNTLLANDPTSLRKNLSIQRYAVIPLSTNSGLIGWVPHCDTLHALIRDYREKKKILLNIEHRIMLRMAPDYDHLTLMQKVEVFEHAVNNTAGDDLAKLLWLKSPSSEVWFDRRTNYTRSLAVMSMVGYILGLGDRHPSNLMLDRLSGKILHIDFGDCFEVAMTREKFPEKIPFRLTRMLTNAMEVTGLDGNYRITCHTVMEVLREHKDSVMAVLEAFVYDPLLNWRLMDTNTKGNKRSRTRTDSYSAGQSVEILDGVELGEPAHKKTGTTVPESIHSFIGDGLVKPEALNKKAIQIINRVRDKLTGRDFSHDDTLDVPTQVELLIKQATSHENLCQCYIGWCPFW
smiles,measurement,setting,value
"Cn1cc(-c2ccc(-c3ccc4ncc5c(c4c3)n(C3CCCN(S(C)(=O)=O)C3)c(=O)n5C)cn2)cn1 (centres unmarked) [Example 3, 3-methyl-8-(6-(1-methyl-1H-pyrazol-4-yl)pyridin-3-yl)-1-(1-(methanesulfonyl)piperidin-3-yl)-1H-imidazo[4,5-c]quinolin-2(3H)-one]",IC50,[1],< 0.01 µM
same,IC50,mTOR kinase,< 0.01 µM
"Cn1cc(-c2ccc(-c3ccc4ncc5c(c4c3)n([C@H]3CC[C@@H](O)CC3)c(=O)n5C)cn2)cn1 [Example 18, 1-((1s,4s)-4-hydroxycyclohexyl)-3-methyl-8-(6-(1-methyl-1H-pyrazol-4-yl)pyridin-3-yl)-1H-imidazo[4,5-c]quinolin-2(3H)-one]",solubility,"[2]; aqueous buffer, water",> 5000 µg/mL
same,IC50,[1],< 0.01 µM
same,IC50,mTOR kinase,< 0.01 µM
same,AUC,[3],10000 to 100000 ng·h/mL
same,Cmax,[3],5000 to 10000 ng/mL
same,half-life,[3],1 to 4 h
same,concentration at 6 h,[3]; 6 h,1 to 10 µM
"Cn1cc(-c2ccc(-c3ccc4ncc5c(c4c3)n([C@H]3CCN(S(C)(=O)=O)C3)c(=O)n5C)cn2)cn1 [Example 28, (S)-3-methyl-8-(6-(1-methyl-1H-pyrazol-4-yl)pyridin-3-yl)-1-(1-(methanesulfonyl)pyrrolidin-3-yl)-1H-imidazo[4,5-c]quinolin-2(3H)-one]",AUC,[4],10000 to 100000 ng·h/mL
same,Cmax,[4],800 to 4000 ng/mL
same,half-life,[4],4 to 10 h
same,concentration at 6 h,[4],1 to 10 µM
same,solubility,"[2]; aqueous with cosolvent or surfactant or cyclodextrin, 30% sulfobutyl-β-cyclodextrin",> 3000 µg/mL
same,IC50,[1],< 0.01 µM
same,IC50,mTOR kinase,< 0.01 µM
"Cn1cc(-c2ccc(-c3ccc4ncc5c(c4c3)n([C@@H]3CCCN(S(C)(=O)=O)C3)c(=O)n5C)cn2)cn1 [Example 31, (R)-3-methyl-8-(6-(1-methyl-1H-pyrazol-4-yl)pyridin-3-yl)-1-(1-(methanesulfonyl)piperidin-3-yl)-1H-imidazo[4,5-c]quinolin-2(3H)-one]",AUC,[4],10000 to 100000 ng·h/mL
same,Cmax,[4],800 to 4000 ng/mL
same,half-life,[4],4 to 10 h
same,concentration at 6 h,[4],1 to 10 µM
same,solubility,"[2]; aqueous buffer, water",> 5000 µg/mL
same,IC50,[1],< 0.01 µM
same,IC50,mTOR kinase,< 0.01 µM
